According to publication PMC6934184, “Selective DNA-PKcs inhibition extends the therapeutic index of localized radiotherapy and chemotherapy” (The Journal of Clinical Investigation, 2019):

Target: T1, SIK3 (Homo sapiens, UniProt Q9Y2K2)
T1 construct: purchased Thermo Fisher Scientific (Life Technologies) SelectScreen
Assay: SelectScreen LanthaScreen
Format: binding
Conditions: 1 µM
Summary of the method: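 NU5455 was profiled across the SelectScreen Broad panel of kinase activity and binding assays. Z'LYTE reactions such as CSF1R ran at apparent Km ATP, while the Adapta CAMK1 assay used ATP listed as 10. Values are given as percent.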

T1 sequence (Q9Y2K2 whole entry): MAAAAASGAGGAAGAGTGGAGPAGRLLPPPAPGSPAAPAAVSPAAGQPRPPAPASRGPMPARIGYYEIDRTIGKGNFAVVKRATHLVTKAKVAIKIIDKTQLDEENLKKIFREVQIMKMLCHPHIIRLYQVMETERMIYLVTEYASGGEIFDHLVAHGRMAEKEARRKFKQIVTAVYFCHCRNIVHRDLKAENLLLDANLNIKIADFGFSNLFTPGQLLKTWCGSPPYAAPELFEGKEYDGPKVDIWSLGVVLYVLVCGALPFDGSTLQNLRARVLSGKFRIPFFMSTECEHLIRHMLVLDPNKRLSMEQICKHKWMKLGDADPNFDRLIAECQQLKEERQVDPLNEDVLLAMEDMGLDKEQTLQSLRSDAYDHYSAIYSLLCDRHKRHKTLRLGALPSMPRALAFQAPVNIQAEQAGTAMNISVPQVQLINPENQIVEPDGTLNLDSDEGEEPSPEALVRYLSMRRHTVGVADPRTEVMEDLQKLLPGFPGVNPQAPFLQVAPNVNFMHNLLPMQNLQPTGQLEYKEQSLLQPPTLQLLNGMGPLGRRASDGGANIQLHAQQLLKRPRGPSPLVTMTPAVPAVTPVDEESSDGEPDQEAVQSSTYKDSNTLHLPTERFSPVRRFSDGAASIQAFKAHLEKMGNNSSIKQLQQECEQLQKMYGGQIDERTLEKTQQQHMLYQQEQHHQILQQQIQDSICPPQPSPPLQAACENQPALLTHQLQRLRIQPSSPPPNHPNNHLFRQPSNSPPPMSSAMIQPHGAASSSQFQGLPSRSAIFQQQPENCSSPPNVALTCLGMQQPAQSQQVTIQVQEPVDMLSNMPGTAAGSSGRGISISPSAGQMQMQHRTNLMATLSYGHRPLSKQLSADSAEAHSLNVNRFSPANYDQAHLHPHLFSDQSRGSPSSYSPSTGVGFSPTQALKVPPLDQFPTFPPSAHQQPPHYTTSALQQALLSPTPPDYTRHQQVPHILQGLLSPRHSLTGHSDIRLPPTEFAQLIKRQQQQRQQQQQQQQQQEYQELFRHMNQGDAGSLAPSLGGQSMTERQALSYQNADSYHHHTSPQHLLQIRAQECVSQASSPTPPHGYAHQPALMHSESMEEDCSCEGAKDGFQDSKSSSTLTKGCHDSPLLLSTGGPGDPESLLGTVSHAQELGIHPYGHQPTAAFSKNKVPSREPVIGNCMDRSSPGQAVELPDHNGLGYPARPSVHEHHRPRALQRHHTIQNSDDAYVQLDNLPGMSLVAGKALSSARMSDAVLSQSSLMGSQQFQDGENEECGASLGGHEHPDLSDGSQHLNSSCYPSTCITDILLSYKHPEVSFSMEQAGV

Structure (SMILES): CN(C(=O)CN1CCOCC1)c1ccc2sc3c(-c4cccc5c(=O)cc(N6CC7CCC(C6)O7)oc45)cccc3c2c1 [NU5455]
- % displacement: 16.1%
